From paper PMC6214630 (Biochimica et biophysica acta. General subjects, 2018)

Target: THB2 (Chlamydomonas reinhardtii, UniProt R9RZJ6)
Experiment: UV-visible absorption
Type: binding
Details: Fe(III) heme

For `CC(=O)O` [acetate], the UV-visible absorption was “this protein, like THB1 and a small number of TrHbs”.

For `c1c[nH]cn1` [imidazole], the UV-visible absorption (excess imidazole) was “addition of excess imidazole to our preparations of THB2 nearly eliminates the discrepancies”.
